Common to all, as to type: in vivo
The test system of assay [1] is Puccinia recondita. The experiment in a line: Protective activity against Puccinia recondita on wheat (brown rust of wheat). As to conditions: single active compound, control 90% infection, read-out: Observed activity (% infection). The protocol: (§1) The active compounds, separately or jointly, were prepared as a stock solution comprising 25 mg of active compound which was made up to 10 ml using a mixture of acetone and/or dimethyl sulfoxide and the emulsifier Uniperol® EL (wetting agent having an emulsifying and dispersing action based on ethoxylated alkylphenols) in a ratio by volume of solvent/emulsifier of 99:1. The mixture was then made up to 100 ml with water. This stock solution was diluted with the solvent/emulsifier/water mixture described to give the concentration of active compound stated below.
(§2) Alternatively, the active compounds epoxiconazole and pyraclostrobin were used as a commercial formulation and diluted with water to the stated active compound concentrations.
(§3) The visually determined percentages of infected leaf areas were converted into efficacies in % of the untreated control.
(§4) The efficacy (E) is calculated as follows using Abbot's formula: […]
(§5) α corresponds to the fungicidal infection of the treated plants in % and β corresponds to the fungicidal infection of the untreated (control) plants in %
(§6) An efficacy of 0 means that the infection level of the treated plants corresponds to that of the untreated control plants; an efficacy of 100 means that the treated plants were not infected.
(§7) The expected efficacies of active compound mixtures were determined using Colby's formula [R. S. Colby, “Calculating synergistic and antagonistic responses of herbicide combinations”, Weeds 15, 20-22 (1967)] and compared with the observed efficacies.
(§8) E=x+y−x·y/100 Colby's formula • E expected efficacy, expressed in % of the untreated control, when using the mixture of the active compounds A and B at the concentrations a and b; • x efficacy, expressed in % of the untreated control, when using the active compound A at the concentration a; • y efficacy, expressed in % of the untreated control, when using the active compound B at the concentration b;
Leaves of potted wheat seedlings of the cultivar “Kanzler” were sprayed to runoff point with an aqueous suspension having the concentration of active compound stated below. The next day the treated plants were inoculated with a spore suspension of brown rust of wheat (Puccinia recondita). The plants were then placed in a chamber at high atmospheric humidity (90 to 95%) at 20 to 22° C. for 24 hours. During this time, the spores germinated and the germ tubes penetrated into the leaf tissue. The next day, the test plants were returned to the greenhouse and cultivated at temperatures between 20 and 22° C. and 65 to 70% relative atmospheric humidity for a further 7 days. The extent of the rust fungus development on the leaves was then determined visually.

Assay [2] has as its system Puccinia recondita. The experiment in a line: Curative activity against brown rust of wheat caused by Puccinia recondita. As to conditions: 168 h, single active compound, sprayed the day after inoculation, 7 days, control 90% infection, read-out: Observed activity (% infection). The protocol:
as §1, §2, §3, §4
(§9) The expected efficacies of active compound mixtures were determined using Colby's formula [R. S. Colby, “Calculating synergistic and antagonistic responses of herbicide combinations”, Weeds 15, 20-22 (1967)] and compared with the observed efficacies. […]
Leaves of wheat seedlings of the cultivar “Kanzler” cultivated in pots were inoculated with a spore suspension of brown rust (Puccinia recondita). […] The extent of the rust fungus development on the leaves was then determined.

Assay [3] relates to Alternaria solani. The experiment in a line: Activity against early blight on tomatoes caused by Alternaria solani (protective spray, potted tomato plants). As to conditions: 120 h, single active compound, efficacy in % of untreated control (Abbot), evaluated after 5 days, control 90% infection, read-out: Observed activity (% infection); for inhibition at 4 µg/mL: 4 mg/l; for inhibition at 1 µg/mL: 1 mg/l. The protocol: as §1, §2, §3, §4, §5, §6, §7, §8
Leaves of potted tomato plants were sprayed to runoff point with an aqueous suspension having the concentration of active compounds stated below. The next day, the leaves were infected with an aqueous spore suspension of Alternaria solani in a 2% biomalt solution having a density of 0.17×10^6 spores/ml. The plants were then placed in a water vapor-saturated chamber at temperatures between 20 and 22° C. After 5 days, the disease on the untreated, but infected control plants had developed to such an extent that the infection could be determined visually in %.

Assay [4] relates to Botrytis cinerea. Nature of the assay: Activity against gray mold on bell pepper leaves caused by Botrytis cinerea, 1 day protective application. As to conditions: 120 h, single active compound, 1 mg/l, efficacy in % of untreated control, after 5 days, control 100% infection, read-out: Observed activity (% infection). The protocol: The active compounds, separately or jointly, were prepared as a stock solution comprising 25 mg of active compound which was made up to 10 ml using a mixture of acetone and/or dimethyl sulfoxide and the emulsifier Uniperol® EL (wetting agent having an emulsifying and dispersing action based on ethoxylated alkylphenols) in a ratio by volume of solvent/emulsifier of 99:1. The mixture was then made up to 100 ml with water. This stock solution was diluted with the solvent/emulsifier/water mixture described to give the concentration of active compound stated below. […]
as §3, §4, §9
Bell pepper seedlings of the cultivar “Neusiedler Ideal Elite” were, after 2-3 leaves were well developed, sprayed to runoff point with an aqueous suspension in the active compound concentration stated below. […] After 5 days, the extent of the fungal infection on the leaves could be determined visually in %.

Assay [5] has as its system Pyrenophora [syn. Drechslera] teres. Nature of the assay: Activity against net blotch of barley caused by Pyrenophora teres, 1 day protective application. As to conditions: 144 h, single active compound, after 6 days, control 90% infection, read-out: Observed activity (% infection); for inhibition at 16 µg/mL: 16 mg/l. The protocol: as §1, §2, §3, §4, §5, §6, §9
Leaves of potted barley seedlings were sprayed to runoff point with an aqueous suspension having the concentration of active compound stated below. […] After 6 days, the extent of the development of the disease was determined visually in % infection of the entire leaf area.

For the compound `Fc1ccc([C@]2(Cn3cncn3)O[C@H]2c2ccccc2Cl)cc1` (racemic) [epoxiconazole, (2RS,3SR)-1-[3-(2-chlorophenyl)-2,3-epoxy-2-(4-fluorophenyl)propyl]-1H-1,2,4-triazole], the inhibition at 0.063 µg/mL in assay [1] (0.063 mg/l) is 11%. Moreover, the inhibition at 0.25 µg/mL in assay [2] (0.25 mg/l) was 0%.

Consider `CC1CCN(c2c(-c3c(F)cc(F)cc3F)c(Cl)nc3ncnn23)CC1` [5-chloro-7-(4-methylpiperidin-1-yl)-6-(2,4,6-trifluorophenyl)-[1,2,4]triazolo[1,5-a]pyrimidine], for which, in assay [3], the inhibition at 4 µg/mL is 22%.

Take `Cn1cc(C(=O)Nc2ccccc2-c2ccc(Cl)cc2Cl)c(C(F)F)n1` [No. I.7, N-(2′,4′-dichlorobiphenyl-2-yl)-1-methyl-3-difluoromethyl-1H-pyrazole-4-carboxamide]: the inhibition at 1 µg/mL in assay [3] was 0%. Also, the inhibition at 0.25 µg/mL in assay [1] (0.25 mg/l) was found to be 11%.

Regarding `Cn1cc(C(=O)Nc2ccccc2-c2ccc(F)cc2F)c(C(F)F)n1` [No. I.11, N-(2′,4′-difluorobiphenyl-2-yl)-1-methyl-3-difluoromethyl-1H-pyrazole-4-carboxamide], the inhibition at 1 µg/mL in assay [4] and in assay [3] was 0% throughout. Moreover, the inhibition at 4 µg/mL in assay [5] (4 mg/l) is 63%.

Turning to `Cn1nc(C(F)(F)F)c(C(=O)Nc2ccccc2-c2ccc(Cl)cc2Cl)c1F` [No. I.17, N-(2′,4′-dichlorobiphenyl-2-yl)-1-methyl-3-trifluoromethyl-5-fluoro-1H-pyrazole-4-carboxamide], the inhibition at 1 µg/mL in assay [3] and in assay [2] (1 mg/l) was 0% throughout. Further, the inhibition at 16 µg/mL in assay [1] (16 mg/l) was determined as 22%.

As to `COc1ccc(C(=CC(=O)N2CCOCC2)c2ccc(Cl)cc2)cc1OC` [dimethomorph, 3-(4-chlorophenyl)-3-(3,4-dimethoxyphenyl)-1-morpholin-4-ylpropenone], the inhibition at 4 µg/mL in assay [3] was 0%. In addition, the inhibition at 16 µg/mL in assay [5] stood at 0%.

Take `COc1cc(C)c(C(=O)c2c(OC)ccc(Br)c2C)c(OC)c1OC` [metrafenone, 3′-bromo-2,3,4,6′-tetramethoxy-2′,6-dimethylbenzophenone]: in assay [1] (63 mg/l), the inhibition at 63 µg/mL stood at 0%. Besides, in assay [5], the inhibition at 16 µg/mL amounted to 0%.

In the case of `COC(=O)N(OC)c1ccccc1COc1ccn(-c2ccc(Cl)cc2)n1` [pyraclostrobin, methyl N-{2-[1-(4-chlorophenyl)-1H-pyrazol-3-yloxymethyl]phenyl}(N-methoxy)carbamate], in assay [4], the inhibition at 1 µg/mL is 0%.

The record behind these values is patent US20090042724A1, “Fungicidal mixtures based on 2,4-disubstituted n-biphenylpyrazolecarboxamides” (priority 2005, published 2009).
